Consider five molecules from patent publication US20250263496A1, “Neutrophil-Activating Therapy for the Treatment of Cancer” (The Board of Trustees of the Leland Stanford Junior …, priority 2024, published 2025).

For one assay, the system named is B16 cells. As to the kind of experiment: Mouse in vitro cytotoxicity (EuTDA), B16 cells co-cultured with neutrophils. In kind it is cell-based. The following applies: for effect of agent on ex vivo killing of tumor cells by neutrophils: neutrophils from treated tumors stimulated with neutrophil-activating therapy. The procedure:
B16 tumors were treated by intratumoral injection of TNF+anti-CD40+anti-gp75 and harvested 12 hours post-treatment. Tumors were dissected away from any surrounding fat, minced, and digested in 5 mg/ml collagenase IV (Worthington) plus 0.1 mg/ml DNase I (Sigma) with continuous mixing by magnetic stir bars for 20 minutes at 37° C. in RPMI-1640 (Gibco) with 2% FBS. Following digestion, tissue was mashed through a […] cell strainer (Falcon) and washed. For some studies, bone marrow was harvested by grinding bones from tumor-naive untreated mice in a mortar and pestle and mashing through a […] strainer (Falcon). Neutrophils were isolated from tumor and bone marrow samples with the MojoSort Mouse Ly6G Selection Kit (BioLegend), according to the manufacturer's instructions, and used in the cytotoxicity assay.
Cytotoxicity assays were conducted using the EuTDA assay from the DELFIA TRF cytotoxicity kit (PerkinElmer) according to the manufacturer's instructions. Briefly, B16 cells were labeled for 10 minutes with BATDA, and 5×10^3 labeled cells were added per well to a 96 well V-bottom plate in RPMI-1640. Neutrophils were added at a ratio of 10:1 unless otherwise stated. All co-cultures were conducted in the presence of TNF (10 ng/ml), anti-CD40 (1 μg/ml), anti-gp75 (1 μg/ml), and 10% active mouse C57BL/6 complement serum (Innovative Research), except where indicated otherwise. Mouse C57BL/6 complement serum was heat-inactivated for 40 minutes at 57° C. where inactivation is specified. In some experiments, mouse IgG2a isotype control (1 μg/ml, isotype control for anti-gp75, clone C1.18.4, Bio X Cell), anti-mouse CD16/CD32 (10 μg/ml, clone 2.4G2, Bio X Cell), recombinant mouse C5a (50 nM, R&D Systems), anti-C5a (25 μg/ml, clone 295108, R&D Systems), rat IgG2a isotype control (25 μg/ml, isotype control for anti-C5a, clone 2A3, Bio X Cell), anti-C5AR1 (5 μg/ml, clone 20/70, BioLegend), rat IgG2b isotype control (5 μg/ml, isotype control for anti-C5AR1, clone LTF-2, Bio X Cell), SC57461A (10 μM, Cayman Chemical), CP-105696 (1 μM, Sigma), topiroxostat (10 μM, MedChem Express), or DMSO (vehicle for SC57461A, CP-105696, and topiroxostat) were added to the wells with the B16 and neutrophils. After 4 hours of co-culture at 37° C., supernatant was taken from the wells, Europium solution was added, and TDA released from lysed B16 cells was detected by […] on a Victor X4 fluorescence microplate reader (PerkinElmer). Percent maximal lysis was determined by calculating the specific release of TDA using the formula: (experimental release−spontaneous release)/(maximum release −spontaneous release), where spontaneous release was determined by wells containing no neutrophils and maximum release was determined by wells with lysis buffer added.
For trogocytosis studies investigating transfer of tumor-binding antibody, anti-gp75 labeled with AF647 (clone TA99, Novus Biologicals) was used in place of unlabeled anti-gp75. For studies investigating transfer of B16 cell membrane, DiD′ Solid (ThermoFisher Scientific) was reconstituted in DMSO at 10 mg/ml and diluted to a working solution of 5 μg/ml in serum-free DMEM. B16 cells were labeled in this solution for 20 minutes at 37° C. at 1×10^6 cells/ml. Labeled B16 was washed 3 times in warm media before being added to the co-culture wells with the neutrophils. Following co-culture, flow cytometry was used to identify DiD signal in neutrophils.

The next assay deals with B16 tumors. Briefly: TUNEL staining of cell death in B16 tumors. It counts as in vivo, mouse. The following applies: agent given prior to neutrophil-activating therapy. The procedure: Tumors were dissected away from surrounding fat, fixed in 2% paraformaldehyde for 2 hours at 4° C., equilibrated in a 30% sucrose solution at 4° C., and embedded and frozen in O.C.T. Compound (Tissue-Tek). Slides were cut to […] and blocked with 1% BSA and 10% serum matched to the secondary antibody species. The following antibodies were used for immunofluorescence: PE anti-Ly6G (clone 1A8, BioLegend), DyLight 650 anti-gp75 (clone TA99, Bio X Cell, labeled using DyLight 650 NHS Ester (Thermo Scientific)), fluorescein anti-gp75 (clone TA99, Bio X Cell, labeled using NHS-Fluorescein (Thermo Scientific)), FITC anti-DNA/RNA damage (clone 15A3, recognizing 8-hydroxy-2′-deoxyguanosine/8-oxo-7,8-dihydroguanine/8-oxo-7,8-dihydroguanosine, Abcam), and AF647 anti-C3 (clone 11H9, Novus Biologicals). DAPI (Invitrogen) was stained at 1 μg/ml. FITC/fluorescein signal was amplified using AF488 anti-FITC (ThermoFisher Scientific), and PE was amplified using biotin anti-PE (clone PE001, BioLegend) followed by DyLight 594 streptavidin (BioLegend) or DyLight 649 streptavidin (BioLegend). Prior to use of biotinylated antibodies, endogenous biotin was blocked using the Avidin/Biotin Blocking Kit (Vector Laboratories). Prior to DNA/RNA damage staining, sections were permeabilized with 0.1% Triton X-100 in 0.1% sodium citrate. TUNEL (Terminal deoxynucleotidyl transferase dUTP nick end labeling) staining was performed using the In Situ Cell Death Detection Kit, TMR Red (Roche) according to the manufacturer's instructions. […] All parameters that were quantified were acquired with identical microscope settings and adjusted identically in Photoshop, and all adjustments were applied equally across the entire tumor. Quantification was performed in ImageJ, using the wand tool on the overlaid multichannel image to draw a border around the tumor and then measuring the percent area within that border with signal for the channel of the marker quantified.

A further assay relates to naive neutrophils. As to the kind of experiment: Mouse in vitro neutrophil stimulations. It counts as cell-based. The procedure: Mouse in vitro neutrophil stimulations. Bone marrow was harvested by grinding bones in a mortar and pestle and mashing through a […] strainer (Falcon). Neutrophils were isolated by negative selection with the MojoSort Mouse Neutrophil Isolation Kit (BioLegend). Following isolation, neutrophils were plated in Opti-MEM (Gibco) at 1×10^5 cells in 100 μl and stimulated with 10 ng/ml TNF, 1 μg/ml anti-CD40, 1 μg/ml anti-gp75, and/or 50 nM recombinant mouse C5a (R&D Systems) for 30 minutes at 37° C. After 30 minutes, the supernatant was collected, centrifuged to remove cells and debris, and analyzed for LTB4 using the Leukotriene B4 ELISA kit (Cayman Chemical 520111) as described above. Additionally, stimulated neutrophils were stained for activation markers and analyzed by flow cytometry as described above.

For `O=C(O)C1(c2ccc3c(c2)OC[C@H](Cc2ccc(-c4ccccc4)cc2)[C@H]3O)CCCC1` [CP-105696], in the assay with B16 cells, the “effect of agent on ex vivo killing of tumor cells by neutrophils” value (“effect of agent … by neutrophils” for short) is recorded as “prevented ex vivo killing of tumor cells”.
With `N[C@@H](CCC(=O)N[C@@H](CS)C(=O)NCC(=O)O)C(=O)O` [GSH, Reduced L-glutathione], the “effect of agent on treatment-induced tumor cell death” value in the assay on B16 tumors is given as “decreased tumor cell death in vivo”. For the same molecule, in the assay on B16 cells, the “effect of agent … by neutrophils” value is “blocked ex vivo killing of tumor cells”.
For the molecule `CN(CCCOc1ccc(Cc2ccccc2)cc1)CCC(=O)O.Cl` [SC57461A], the “effect of agent on treatment-induced tumor cell death” value in the assay with B16 tumors is given as “prevented treatment-induced tumor cell death”. Also, the “effect of agent … by neutrophils” value with B16 cells is reported as “prevented ex vivo killing of tumor cells”.

B1: C5a: recombinant mouse C5a (R&D Systems) (protein, UniProt P06684 679-755, looked up)
C5a anaphylatoxin: NLHLLRQKIEEQAAKYKHSVPKKCCYDGARVNFYETCEERVARVTIGPLCIRAFNECCTIANKIRKESPHKPVQLGR
modifications: C5a anaphylatoxin
For the molecule B1, in the assay with naive neutrophils (in vitro), the neutrophil activation result is reported as “activated neutrophils”. Besides, in the assay with naive neutrophils (in vitro stimulation), the “LTB4 production by neutrophils” value is recorded as “induced LTB4”. In the assay with B16 cells, the “requirement for ex vivo killing of B16 cells by tumor-infiltrating neutrophils” value is recorded as “required C5a or serum containing functional complement”.

B2: catalase: enzyme neutralizing hydrogen peroxide (C40, Sigma) (protein, UniProt P00432 2-527, looked up)
Catalase: ADNRDPASDQMKHWKEQRAAQKPDVLTTGGGNPVGDKLNSLTVGPRGPLLVQDVVFTDEMAHFDRERIPERVVHAKGAGAFGYFEVTHDITRYSKAKVFEHIGKRTPIAVRFSTVAGESGSADTVRDPRGFAVKFYTEDGNWDLVGNNTPIFFIRDALLFPSFIHSQKRNPQTHLKDPDMVWDFWSLRPESLHQVSFLFSDRGIPDGHRHMNGYGSHTFKLVNANGEAVYCKFHYKTDQGIKNLSVEDAARLAHEDPDYGLRDLFNAIATGNYPSWTLYIQVMTFSEAEIFPFNPFDLTKVWPHGDYPLIPVGKLVLNRNPVNYFAEVEQLAFDPSNMPPGIEPSPDKMLQGRLFAYPDTHRHRLGPNYLQIPVNCPYRARVANYQRDGPMCMMDNQGGAPNYYPNSFSAPEHQPSALEHRTHFSGDVQRFNSANDDNVTQVRTFYLKVLNEEQRKRLCENIAGHLKDAQLFIQKKAVKNFSDVHPEYGSRIQALLDKYNEEKPKNAVHTYVQHGSHLSAREKANL
As to B2, in the assay on B16 cells, the “effect of agent … by neutrophils” value is “blocked ex vivo killing of tumor cells”.
